# US20100204116A1, “USE OF CALCITONIN AS ANTI-ANGIOGENIC AGENT” (priority 2007, published 2010)
# How the values were obtained:
# [1] = system: MRC-5 cells (human embryonal lung fibroblasts); experiment: Cytotoxicity (CellTiter 96 cell viability) in the HCMV assay; settings: MRC-5 cells; 6 days incubation; CellTiter 96
# [2] = system: HCMV strain AD169; experiment: HCMV plaque reduction assay in MRC-5 cells; assay type: cell-based; settings: peptide 10 micrograms per ml, 7-10 days
# Source text: Ganciclovir was used as positive control.
# [3] = system: Human A549 cells; experiment: Apoptosis prevention assay (C2 ceramide, Annexin-5); assay type: cell-based; settings: A549 cells pretreated 30 min with peptide 10 micrograms per ml, then C2 ceramide
# [4] = system: HIV-1IIIB; experiment: HIV-1 antiviral assay (CPE reduction, MTS) in CEM-SS cells; settings: peptide 10 micrograms per ml, 6 days post-infection
# [5] = system: RAW 264.7 cells; experiment: Phagocytosis assay (Fluorescein-labeled Escherichia coli, flow cytometry); assay type: cell-based, mouse; settings: peptide 10 micrograms per ml
# Protocol: RAW 264.7 (Mouse leukaemic monocyte macrophage cell line) cells were obtained from ATCC and grown in RPMI 1640 medium containing 10% FBS. […] After the cells were incubated for additional 60 min at 37° C. and allowed to ingest the Fluorescein-labeled Escherichia coli bacteria, cells were fixed with 1% paraformaldehyde. The samples were then analyzed by flow cytometry to determine the amount of phagocytosis as a function of brightness (the greater the phagocytic activity, the more fluorescence in the macrophage population). Data are reported as % positive and the mean fluorescence intensity (MFI) of positively stained cells.
# [6] = system: Human A549 cells; experiment: Apoptosis induction assay (Annexin-5); assay type: cell-based; settings: peptide 10 micrograms per ml, 24 hours
# [7] = system: Human Peripheral Blood Mononuclear Cells (PBMC); experiment: T cell proliferation assay (PHA, 3H-thymidine); assay type: cell-based; settings: peptide 10 micrograms per ml
# [8] = system: Human A549 cells; experiment: Propidium iodide cell cycle assay; assay type: cell-based; settings: peptide 10 micrograms per ml, 24 hours
# [9] = system: spleen cells; experiment: Th1/Th2 cytokine profiling assay (Ovalbumin-restimulated spleen cells, CBA kit); assay type: cell-based, Balb/c mice; settings: peptide 10 micrograms per ml; Ovalbumin restimulation; 72 hours
# [10] = system: Human Peripheral Blood Mononuclear Cells (PBMC); experiment: B cell proliferation assay (SAC plus Interleukin-2, 3H-thymidine); assay type: cell-based; settings: peptide 10 micrograms per ml
# [11] = system: TNF alpha; experiment: TNF alpha production assay (LPS-stimulated macrophages, ELISA); assay type: cell-based, human; settings: peptide 10 micrograms per ml, lipopolysaccharide 200 ng/ml, overnight
# Source text: Not stimulated macrophages served as negative background control.
# [12] = system: HUVEC; experiment: Endothelial tube formation assay; assay type: cell-based, human; settings: peptide 10 micrograms per ml, 20 hours
# Source text: Positive control was vehicle only.
# [13] = system: hepatitis B virus (HBV) ayw strain; experiment: HBV experimental assay system (secreted HBV DNA, TaqMan PCR); settings: peptide 10 micrograms per ml; six days; HBV DNA in supernatant
# [14] = Cytotoxicity (CellTiter 96 cell viability) in the HCMV assay; settings: human, MRC-5 cells (human embryonal lung fibroblasts)
# [15] = system: Primary Human endothelial cells (HUVEC); experiment: Endothelial cell migration assay; assay type: cell-based; settings: peptide 10 micrograms per ml, 22 hours
# [16] = system: CEM-SS cells; experiment: Cytotoxicity (MTS cell viability) in the HIV-1 assay; settings: CEM-SS cells plus peptide only, 10 micrograms per ml
structure (smiles),measurement,setting,value
"Nc1nc(O)c2ncn(COC(CO)CO)c2n1 [Ganciclovir, reference compound]",% Cell viability,[1],100%
CC[C@H](C)[C@H](NC(=O)[C@H](C)NC(=O)[C@@H](NC(=O)[C@H](CCC(N)=O)NC(=O)[C@@H]1CCCN1C(=O)[C@H](Cc1ccccc1)NC(=O)[C@@H](NC(=O)[C@H](Cc1c[nH]cn1)NC(=O)[C@H](Cc1ccccc1)NC(=O)[C@H](CCCCN)NC(=O)[C@H](CC(N)=O)NC(=O)[C@H](Cc1ccccc1)NC(=O)[C@H](CC(=O)O)NC(=O)[C@H](CCC(N)=O)NC(=O)[C@@H](NC(=O)[C@H](Cc1ccc(O)cc1)NC(=O)[C@@H](NC(=O)CNC(=O)[C@H](CC(C)C)NC(=O)[C@H](CCSC)NC(=O)[C@@H]1CSSC[C@H](N)C(=O)NCC(=O)N[C@@H](CC(N)=O)C(=O)N[C@@H](CC(C)C)C(=O)N[C@@H](CO)C(=O)N[C@@H]([C@@H](C)O)C(=O)N1)[C@@H](C)O)[C@@H](C)O)[C@@H](C)O)[C@@H](C)O)C(=O)NCC(=O)N[C@H](C(=O)NCC(=O)N[C@@H](C)C(=O)N1CCC[C@H]1C(N)=O)C(C)C [Calcitonin],% plaque reduction,[2],5.8%
same,% prevention of ceramide induced apoptosis,[3],32.7%
same,% CPE reduction in HIV-1 infected CEM-SS cells,[4],0.0%
same,% of control phagocytosis,[5],102.9%
same,% of induction,[6],2.9%
same,% of PHA induced Control,[7],87.4%
same,Cell cycle analysis G0/G1,[8],57.0
same,Cell cycle analysis G2/M,[8],10.4
same,Cell cycle analysis S,[8],32.6
same,IFNγ spleen cells; TH1 response (% of control),[9],63.7 % of control
same,IL-2 spleen cells (% of control),[9],110.1 % of control
same,IL-4 spleen cells; TH2 response (% of control),[9],0.0 % of control
same,IL-5 spleen cells; TH2 response (% of control),[9],60.2 % of control
same,TNF-a spleen cells; TH1 response (% of control),[9],116.4 % of control
same,% of SAC/IL2 induced control,[10],92.6%
same,% of LPS induction,[11],93.4%
same,% inhibition of tube formation,[12],18%
same,% inhibition of HBV replication in HEP G2 cells,[13],31.0%
same,viability at 144 h,[14],100%
same,% inhibition of migration,[15],26%
"Cc1cn([C@H]2C[C@H](N=[N+]=[N-])[C@@H](CO)O2)c(=O)[nH]c1=O [AZT, reference compound]",% CPE reduction in HIV-1 infected CEM-SS cells,[4],99%
same,% Cell viability,[16],97%
